Data set [1] addresses T1, human serum albumin (Homo sapiens, UniProt P02768).
T1 construct: purchased H13H-2433
Briefly: HSA binding on Chiralpak HSA column. Format: in vitro ADME. The conditions noted are these: for Log K HSA: reference substances for calibration of the HSA-column; for HSA Binding: Chiralpak HSA column (50 × 3 mm, 5 μm).

Data set [2] deals with T1, human serum albumin. The conditions noted are these: reference substances for calibration of the HSA-column; cited from earlier work.
Data set [3] can be described thus: Octanol-water partition coefficient (n-octanol/PBS pH 7.4). The data set is classed as physicochemical. The conditions noted are these: for log P: octanol/PBS7.4, (n = 6). Here is the method: Approximately 1 MBq of the labeled tracer was dissolved in 1 mL of a 1:1 mixture (by volumes) of phosphate buffered saline (PBS, pH 7.4) and n-octanol in an Eppendorf tube. After vigorous mixing of the suspension for 3 minutes at room temperature, the vial was centrifuged at 15000 g for 3 minutes (Biofuge 15, Heraus Sepatech, Osterode, Germany) and 100 μL aliquots of both layers were measured in a gamma counter. The experiment was repeated at least six times.
Determianation of the IogP values was carried out in phosphate buffered saline (PBS, pH 7.4) and n-octanol (=logPoct/PBS).

For the next data set, the target named is T2, PSMA (Homo sapiens, UniProt Q04609).
T2 construct: endogenous in cells; host or cells: LNCaP cells
Briefly: Determination of IC50: PSMA affinity, competitive binding on LNCaP cells against ([125I]I-BA)KuE. Here is the method:
Data are expressed as mean±SD (n=3, in 3 different experiments).
After removal of the culture medium, the cells were treated once with 500 μL of HBSS (Hank's balanced salt solution, Biochrom, Berlin, Germany, with addition of 1% bovine serum albumin (BSA)) and left 15 min on ice for equilibration in 200 μL HBSS (1% BSA). […] Quantification of bound and free radioligand was accomplished in a γ-counter.

Data set [4] concerns LNCaP tumor-bearing SCID mice. Briefly: Biodistribution at 1 h p.i. Format: in vivo. The conditions noted are these: for Biodistribution tumor: LNCaP tumor. Here is the method: FIG. 10: Biodistribution (in % ID/g) of ^18E-labeled rhPSMA tracers at 1 h p.i in LNCaP tumor-bearing SCID mice. Data are expressed as mean±SD (n=4 for rhPSMA7.1, n=5 for 7.2, n=4 for 7.3, n=5 for 7.4 and n=3 for 7-rac).

Data set [5] concerns LNCaP tumor-bearing SCID mice. Briefly: Biodistribution at 1 h p.i. with competition (co-injected PMPA). Format: in vivo. The conditions noted are these: co-injected with PMPA (8 mg/kg); for Biodistribution tumor: LNCaP tumor. Here is the method:
FIG. 11: Biodistribution [% ID/g] of ^18F-rhPSMAs co-injected with PMPA (8 mg/kg) at 1 h p.i in LNCaP tumor-bearing SCID mice. Data are expressed as mean±SD (n=3).

Data set [6] relates to PSMA-positive LNCaP cells. As to the kind of experiment: Internalization in LNCaP cells, normalized to ([125I]I-BA)KuE. Format: cell-based. The conditions noted are these: for individual internalization rates / internalization rate Mean: LNCaP cells, 1 hour, 37° C.; for individual internalization rates: c=0.5 nM, single measurements. Here is the method: Data is corrected for non-specific binding ([…]) and expressed as mean±SD (n=3).
Subsequent to the removal of the culture medium, the cells were washed once with 500 μL DMEM-F12 (5% BSA) and left to equilibrate for at least 15 min at 37° C. in 200 μL DMEM-F12 (5% BSA). Each well was treated with either 25 μL of either DMEM-F12 (5% BSA) or a 100 μM PMPA solution for blockade. Next, 25 μL of the ^68Ga/^18F-labeled PSMA inhibitor (5.0 nM) was added and the cells incubated at 37° C. for 60 min. The experiment was terminated by placing the 24-well plate on ice for 3 min and consecutive removal of the medium. Each well was rinsed with 250 μL HBSS and the fractions from these first two steps combined, representing the amount of free radioligand. Removal of surface bound activity was accomplished by incubation of the cells with 250 μL of ice-cold PMPA (10 μM in PBS) solution for 5 min and rinsed again with another 250 μL of ice-cold PBS. The internalized activity was determined by incubation of the cells in 250 μL 1 M NaOH and the combination with the fraction of a subsequent wash step with 250 μL 1.0 M NaOH. Each experiment (control and blockade) was performed in triplicate. Free, surface bound and internalized activity was quantified in a γ-counter. […] Data were corrected for non-specific internalization and normalized to the specific-internalization observed for the radioiodinated reference compound.

For data set [7] the following is noted: Wängler et al. 2010; cited from earlier work.
Setting [8] is: LNCaP cells, [125I]IB-KuE c=0.2 nM, 1 h, 4° C., HBSS+1% BSA, single measurements, read-out: individual IC50 measurements.
Where [9] appears, read: LNCaP cells, [125I]IB-KuE c=0.2 nM, 1 h, 4° C., mean of individual measurements, read-out: IC50 Mean.

Where “and” joins values, the source holds several entries; their conditions need not be identical. Equal entries are not always repeated. Where two headings read alike, the source gives them in different places.

T1 sequence (P02768 25-609): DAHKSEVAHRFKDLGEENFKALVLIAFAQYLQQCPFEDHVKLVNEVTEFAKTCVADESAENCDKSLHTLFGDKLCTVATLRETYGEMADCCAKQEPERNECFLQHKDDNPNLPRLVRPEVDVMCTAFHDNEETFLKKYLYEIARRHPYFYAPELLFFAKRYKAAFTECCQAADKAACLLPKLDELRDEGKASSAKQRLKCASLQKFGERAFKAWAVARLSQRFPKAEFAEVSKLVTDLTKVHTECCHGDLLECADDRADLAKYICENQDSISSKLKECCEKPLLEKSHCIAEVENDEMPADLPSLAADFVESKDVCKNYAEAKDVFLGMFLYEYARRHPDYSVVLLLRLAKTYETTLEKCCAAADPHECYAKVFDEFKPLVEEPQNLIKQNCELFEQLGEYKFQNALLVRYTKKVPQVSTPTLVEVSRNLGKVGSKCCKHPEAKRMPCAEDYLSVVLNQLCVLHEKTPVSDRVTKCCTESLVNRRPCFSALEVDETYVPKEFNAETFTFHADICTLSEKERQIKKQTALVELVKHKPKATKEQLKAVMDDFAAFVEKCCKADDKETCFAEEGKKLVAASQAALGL
T2 sequence (Q04609 whole entry): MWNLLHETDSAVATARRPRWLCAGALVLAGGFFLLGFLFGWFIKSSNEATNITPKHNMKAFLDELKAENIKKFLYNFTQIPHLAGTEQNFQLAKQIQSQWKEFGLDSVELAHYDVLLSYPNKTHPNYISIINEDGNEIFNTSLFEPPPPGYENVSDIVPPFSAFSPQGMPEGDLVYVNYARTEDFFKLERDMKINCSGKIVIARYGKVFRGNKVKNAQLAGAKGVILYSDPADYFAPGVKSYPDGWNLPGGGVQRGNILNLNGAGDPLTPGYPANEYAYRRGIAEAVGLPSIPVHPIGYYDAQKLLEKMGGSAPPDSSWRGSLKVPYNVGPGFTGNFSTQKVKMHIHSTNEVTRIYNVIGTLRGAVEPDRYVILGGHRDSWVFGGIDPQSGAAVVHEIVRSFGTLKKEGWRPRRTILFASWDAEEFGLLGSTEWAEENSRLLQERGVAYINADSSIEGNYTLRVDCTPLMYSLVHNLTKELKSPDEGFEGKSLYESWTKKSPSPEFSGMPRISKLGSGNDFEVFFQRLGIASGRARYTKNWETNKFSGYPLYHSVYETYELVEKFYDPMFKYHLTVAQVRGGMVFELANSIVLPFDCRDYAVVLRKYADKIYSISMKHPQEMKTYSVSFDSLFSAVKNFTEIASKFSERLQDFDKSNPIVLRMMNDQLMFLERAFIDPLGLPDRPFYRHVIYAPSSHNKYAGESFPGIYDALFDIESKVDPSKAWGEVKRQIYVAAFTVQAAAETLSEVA

With `Nc1ccccc1` [Aniline], the “Log K HSA” value on human serum albumin [1] is −0.79. On human serum albumin [2], the “Lit. HSA % (literature value of human serum albumin binding)” value (from here on “Lit. HSA %”) was 14.06%.

As to `O=C(O)c1ccccc1` [Benzoic Acid], on human serum albumin [2], the “Lit. HSA %” value is 34.27%.

In general, logP refers to the decadic logarithm of the partition coefficient of the neutral form, usually between octanol and water. Read a low logP as a more hydrophilic compound. As to `O=C(O)CC[C@H](NC(=O)N[C@@H](CCCCNC(=O)c1ccc(F)nc1)C(=O)O)C(=O)O` [DCFPyL, reference compound], the logP in data set [3] (pH 7.4) was -3.4. The “HSA Binding” value on human serum albumin [1] was determined as 14.3%.

Turning to `COc1ccc(Cl)cc1C(=O)NCCc1ccc(S(=O)(=O)NC(=O)NC2CCCCC2)cc1` [Glibenclamide], on human serum albumin [1], the “Log K HSA” value is on record as 1.69. The “Lit. HSA %” value on human serum albumin [2] is 99.00%.

`Oc1ccccc1` [Phenol]: the “Log K HSA” value on human serum albumin [1] is −0.59. In addition, on human serum albumin [2], the “Lit. HSA %” value is given as 20.69%.

In the case of `CCCN(CCC)S(=O)(=O)c1ccc(C(=O)O)cc1` [Probenecid], the “Lit. HSA %” value on human serum albumin [2] is given as 95.00%.

Usually IC50 stands for the midpoint of a concentration-inhibition curve. The term log P denotes the decadic logarithm of the partition coefficient of the neutral form, usually between octanol and water. Read a low log P as lower lipophilicity. Turning to `CC(C)(C)[Si](F)(c1ccc(C(=O)NC[C@H](NC(=O)CC[C@H](C(=O)O)N2CCN(CC(=O)[O-])CCN(CC(=O)[O-])CCN(CC(=O)[O-])CC2)C(=O)N[C@H](CCCCNC(=O)CCC(=O)NCCC[C@@H](NC(=O)CC[C@H](NC(=O)N[C@@H](CCC(=O)O)C(=O)O)C(=O)O)C(=O)O)C(=O)O)cc1)C(C)(C)C.[Ga+3]` [rhPSMA7.2, [^19F][^natGa]L-Dap-R-DOTAGA-rhPSMA7], the IC50 on PSMA (setting [8]) is 2.64 nM and 2.76 nM and 3.94 nM and 5.8 nM and 4.31 nM and 4.32 nM and 3.17 nM and 2.97 nM and 3.36 nM. Moreover, on PSMA (setting [9]), the IC50 turned out to be 3.7 nM. For the same compound, the log partition coefficient (log P) in data set [3] was −3.13 ± 0.22. In data set [3] (octanol/PBS7.4, mean of individual measurements), the “log P Mean” value was −3.13. Besides, the “individual log P measurements” value in data set [3] (octanol/PBS7.4, single measurements) was −3.03 and −2.96 and −2.94 and −2.89 and −3.02 and −3.06 and −2.99 and −3.14 and −3.40 and −3.50 and −3.45 and −3.53 and −3.48 and −3.00 and −3.01. In data set [4], the Biodistribution adrenals is recorded as 1.3 ± 0.8 % ID/g, the Biodistribution blood was 0.56 ± 0.20 % ID/g, the Biodistribution bone stood at 0.31 ± 0.24 % ID/g and the Biodistribution heart worked out at 0.32 ± 0.13 % ID/g. Moreover, in data set [4], the Biodistribution intestine is given as 0.18 ± 0.07 % ID/g, the Biodistribution kidneys is 87.6 ± 28.8 % ID/g, the Biodistribution liver was 0.35 ± 0.08 % ID/g and the Biodistribution lung is 0.89 ± 0.38 % ID/g. Further, in data set [4], the Biodistribution muscle worked out at 0.13 ± 0.07 % ID/g, the Biodistribution pancreas was found to be 0.21 ± 0.08 % ID/g, the Biodistribution spleen was 10.1 ± 6.3 % ID/g and the Biodistribution stomach amounted to 0.19 ± 0.08 % ID/g. The same compound had a Biodistribution tumor in data set [4] of 6.5 ± 2.3 % ID/g. In addition, the “HSA Binding” value at human serum albumin [1] was 97.8%. In data set [5], this compound displayed a Biodistribution adrenals of 0.07 ± 0.10 % ID/g, a Biodistribution blood of 1.1 ± 0.31 % ID/g, a Biodistribution bone of 0.57 ± 0.39 % ID/g and a Biodistribution heart of 0.47 ± 0.09 % ID/g. Besides, in data set [5], the Biodistribution intestine is recorded as 0.33 ± 0.10 % ID/g, the Biodistribution kidneys is on record as 10.9 ± 1.0 % ID/g, the Biodistribution liver is reported as 0.46 ± 0.07 % ID/g and the Biodistribution lung is 1.1 ± 0.32 % ID/g. In data set [5], the Biodistribution muscle is 0.09 ± 0.03 % ID/g, the Biodistribution pancreas stood at 0.12 ± 0.05 % ID/g, the Biodistribution spleen is recorded as 0.26 ± 0.07 % ID/g and the Biodistribution stomach is 0.21 ± 0.06 % ID/g. Also, the Biodistribution tumor in data set [5] came out at 1.0 ± 0.13 % ID/g. Also, in data set [6], the individual internalization rates was 192.3 % of [^125I]IB-KuE and 188.7 % of [^125I]IB-KuE and 182.7 % of [^125I]IB-KuE and 169.5 % of [^125I]IB-KuE and 205.3 % of [^125I]IB-KuE and 212.6 % of [^125I]IB-KuE; the “internalization rate Mean” value is 191.83 % of [^125I]IB-KuE.

Take PSMA-1007 [reference compound]: on PSMA (identical binding assay, carried out in our lab (Robu et al. 2018), read-out: IC50 of other selected PSMA inhibitors), the IC50 is 4.2 ± 0.5 nM. For the same compound, the “log P” value in data set [3] is on record as −1.6. Besides, at human serum albumin [1], the “HSA Binding” value is on record as 97.8%. In data set [6] (identical assay, carried out in our lab (Robu et al. 2018)), the “internalization of other selected PSMA inhibitors” value was 118 ± 4 % of [^125I]IB-KuE.

In the case of “SIFA-Asn(AcNH-β-Glc)-PEG-Tyr^3-octreotate”, the “log P(ow)” value in data set [7] is given as 0.96.

SIFA-Asn(AcNH-β-Glc)-Tyr^3-octreotate: in data set [7], the “log P(ow)” value is recorded as 1.23.

Consider “[^19F][^natGa]L-Dap-S-DOTAGA-rhPSMA7 [rhPSMA7.4]”, for which the half-inhibitory concentration (IC50) on PSMA (setting [8]) is 3.4 nM and 3.56 nM and 2.79 nM and 4.57 nM and 3.78 nM. For the same compound, the IC50 at PSMA (setting [9]) was found to be 3.62 nM. In data set [4], the Biodistribution adrenals came out at 3.57 ± 2.38 % ID/g, the Biodistribution blood was 1.15 ± 0.30 % ID/g, the Biodistribution bone was 0.62 ± 0.30 % ID/g and the Biodistribution heart is 0.71 ± 0.26 % ID/g. In data set [4], the Biodistribution intestine amounted to 0.37 ± 0.09 % ID/g, the Biodistribution kidneys amounted to 153 ± 80.3 % ID/g, the Biodistribution liver is recorded as 0.69 ± 0.20 % ID/g and the Biodistribution lung is given as 1.59 ± 0.61 % ID/g. In data set [4], this compound registered a Biodistribution muscle of 0.31 ± 0.08 % ID/g, a Biodistribution pancreas of 0.50 ± 0.30 % ID/g, a Biodistribution spleen of 18.4 ± 9.77 % ID/g and a Biodistribution stomach of 0.25 ± 0.06 % ID/g. Besides, the Biodistribution tumor in data set [4] is 18.9 ± 3.27 % ID/g. Further, at human serum albumin [1], the “HSA Binding” value was 96.6%. Also, in data set [5], the Biodistribution adrenals was determined as 0.03 ± 0.04 % ID/g, the Biodistribution blood is listed as 0.82 ± 0.17 % ID/g, the Biodistribution bone is reported as 1.0 ± 0.8 % ID/g and the Biodistribution heart is 0.37 ± 0.05 % ID/g. Besides, in data set [5], the Biodistribution intestine is reported as 0.36 ± 0.08 % ID/g, the Biodistribution kidneys was 7.2 ± 2.4 % ID/g, the Biodistribution liver is 0.48 ± 0.14 % ID/g and the Biodistribution lung was 0.74 ± 0.14 % ID/g. Further, in data set [5], the Biodistribution muscle turned out to be 0.20 ± 0.05 % ID/g, the Biodistribution pancreas came to 0.18 ± 0.09 % ID/g, the Biodistribution spleen is listed as 0.28 ± 0.15 % ID/g and the Biodistribution stomach was determined as 0.20 ± 0.07 % ID/g. The compound also registered a Biodistribution tumor in data set [5] of 0.99 ± 0.19 % ID/g. In data set [6], the individual internalization rates is 209.6 % of [^125I]IB-KuE and 202.6 % of [^125I]IB-KuE and 209.8 % of [^125I]IB-KuE; the “internalization rate Mean” value is 207.33±4.06 % of [^125I]IB-KuE and 207.33 % of [^125I]IB-KuE.

The values above are taken from US12357711B2, “PSMA binding dual mode radiotracer and therapeutic” (Technische Universität München, priority 2019, dated 2025).
